Consider 2 compounds from US20230085307A1, “PYRIDAZINONE COMPOUND AND HERBICIDE” (NISSAN CHEMICAL CORPORATION, priority 2019, published 2023).

Experiment [1] has as its system barnyard grass. Briefly: Test Example 3: herbicidal effect by foliage application, Wagner pot (Table 18, symbol H). It counts as in vivo, barnyard grass (Echinochloa crus-galli). The following applies: 320 g/ha. The essentials: (§1)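 Plants were sown in alluvial soil held under 0.1–0.5 cm standing water and grown 14 days in a greenhouse at 25–30 °C. An emulsifiable formulation, water-diluted to the set dose, was then sprayed onto the foliage, and effects were scored three weeks later using previously defined criteria.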

Experiment [2] concerns Japanese bulrush. Briefly: Test Example 2: herbicidal activity, application during weed generation under submerged conditions (Table 17, symbol B). It counts as in vivo, Japanese bulrush (Schoenoplectus juncoides). Conditions: AAH 320 g/ha; application during weed generation, submerged conditions. As for the experimental part:
(§2) [Test Example 2] Herbicidal Activity Test by Application during Weed Generation under Submerged Conditions After alluvial soil was placed into 1/10000 are of Wagner pot, water was poured and mixed to form a submerged condition having a water depth of 4 cm. Seeds of late watergrass, Japanese bulrush, and oval-leafed pondweed were sowed in a mixed manner in the aforementioned pot, and the pot was placed in a greenhouse at 25° C. to 30° C. for growth of the plants. When late watergrass, Japanese bulrush, and oval-leafed pondweed were grown to one leaf stage to two leaf stage, the emulsion agent of the compound of the present invention prepared according to Formulation Example 2 was diluted with water so as to achieve a predetermined herbicide amount, and the diluted emulsion agent was applied to the surface of the water. Three weeks after the herbicide application, the effect of the herbicide on each plant was evaluated according to the criteria of Test Example 1.

The next experiment deals with Chinese sprangletop. Briefly: Test Example 3: herbicidal effect by foliage application, Wagner pot (Table 18, symbol D). It counts as in vivo, chinese sprangletop (Leptochloa chinensis). The following applies: 320 g/ha. Put shortly:
as §1

Experiment [3] relates to oval-leafed pondweed. As to the kind of experiment: Test Example 2: herbicidal activity, application during weed generation under submerged conditions (Table 17, symbol C). It counts as in vivo, oval-leafed pondweed (Monochoria vaginalis). Conditions: AAH 320 g/ha; application during weed generation, submerged conditions. As for the experimental part: as §2
Another experiment has as its system rice flat sedge. Briefly: Test Example 3: herbicidal effect by foliage application, Wagner pot (Table 18, symbol E). It counts as in vivo, rice flat sedge (Cyperus iria). Conditions: 320 g/ha. The essentials:
as §1

Experiment [4] has as its system late watergrass. Briefly: Test Example 2: herbicidal activity, application during weed generation under submerged conditions (Table 17, symbol A). It counts as in vivo, late watergrass (Echinochloa oryzicola). The following applies: AAH 320 g/ha; application during weed generation, submerged conditions. As for the experimental part: as §2
Experiment [5] has as its system blackgrass. As to the kind of experiment: Test Example 5: herbicidal effect by foliage application, plastic box (Table 20, symbol J). It counts as in vivo, blackgrass (Alopecurus myosuroides). The following applies: foliage application, 320 g/ha, 3 weeks after application. The essentials:
(§3)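 Plants were sown into sterilized diluvial soil under about 1.5 cm cover and kept in a greenhouse at 25° C. to 30° C. Fourteen days on, foliage received an even spray of the diluted emulsion. Herbicidal or crop effect was judged three weeks afterwards.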

In experiment [6] the test system is green foxtail. Briefly: Test Example 5: herbicidal effect by foliage application, plastic box (Table 20, symbol G). The following applies: foliage application, 320 g/ha, 3 weeks after application. It counts as in vivo, green foxtail (Setaria viridis). The essentials:
as §3

The subject of experiment [7] is oval-leafed pondweed. Briefly: Test Example 1: herbicidal activity, application before weed generation under submerged conditions (Table 16, symbol C). It counts as in vivo, oval-leafed pondweed (Monochoria vaginalis). Conditions: 320 g/ha applied herbicide. Put shortly: (§4)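 Emulsion formulation, water-diluted to set dose, was put onto the flooded surface (4 cm depth, alluvial soil) the same day weeds were sown and 2.5-leaf rice transplanted. After 3 weeks at 25-30 °C under glass, each species was rated 0 (≤5% kill) to 5 (≥90% kill).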

The subject of experiment [8] is lambsquarters. Briefly: Test Example 5: herbicidal effect by foliage application, plastic box (Table 20, symbol O). It counts as in vivo, lambsquarters (Chenopodium album). The following applies: foliage application, 320 g/ha, 3 weeks after application. The essentials:
as §3

Another experiment has as its system chickweed. Briefly: Test Example 4: herbicidal effect by soil treatment (Table 19, symbol P). Conditions: AAH 320 g/ha. It counts as in vivo, common chickweed (Stellaria media). Put shortly: (§5)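 In this soil treatment, the formulated compound reached the seeds only through the soil: seeds were buried about 1.5 cm deep in sterilized diluvial soil, then the diluted emulsion was sprayed over the surface. After three weeks at 25° C. to 30° C. in a greenhouse, effects were graded on criteria from an earlier test.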

Experiment [9] deals with persian speedwell. Briefly: Test Example 5: herbicidal effect by foliage application, plastic box (Table 20, symbol R). It counts as in vivo, Persian speedwell (Veronica persica). Conditions: foliage application, 320 g/ha, 3 weeks after application. Put shortly:
as §3

Experiment [10] relates to velvetleaf. As to the kind of experiment: Test Example 5: herbicidal effect by foliage application, plastic box (Table 20, symbol M). It counts as in vivo, velvetleaf (Abutilon theophrasti). The following applies: foliage application, 320 g/ha, 3 weeks after application. The essentials:
as §3

Experiment [11] has as its system Italian ryegrass. As to the kind of experiment: Test Example 5: herbicidal effect by foliage application, plastic box (Table 20, symbol K). Conditions: foliage application, 320 g/ha, 3 weeks after application. It counts as in vivo, Italian ryegrass (Lolium multiflorum). Put shortly:
as §3

Experiment [12] has as its system Italian ryegrass. Briefly: Test Example 4: herbicidal effect by soil treatment (Table 19, symbol K). It counts as in vivo, Italian ryegrass (Lolium multiflorum). The following applies: AAH 320 g/ha. The essentials: as §5
Experiment [13] relates to wild oat. Briefly: Test Example 4: herbicidal effect by soil treatment (Table 19, symbol I). Conditions: AAH 320 g/ha. It counts as in vivo, wild oat (Avena fatua). Put shortly:
as §5

Experiment [14] has as its system lambsquarters. Briefly: Test Example 4: herbicidal effect by soil treatment (Table 19, symbol O). It counts as in vivo, lambsquarters (Chenopodium album). Conditions: AAH 320 g/ha. Put shortly: as §5
The test system of experiment [15] is wild oat. Briefly: Test Example 5: herbicidal effect by foliage application, plastic box (Table 20, symbol I). It counts as in vivo, wild oat (Avena fatua). The following applies: foliage application, 320 g/ha, 3 weeks after application. Put shortly:
as §3

For experiment [16], the system named is barnyard grass. As to the kind of experiment: Test Example 5: herbicidal effect by foliage application, plastic box (Table 20, symbol H). It counts as in vivo, barnyard grass (Echinochloa crus-galli). Conditions: foliage application, 320 g/ha, 3 weeks after application. The essentials: as §3
For experiment [17], the system named is southern crabgrass. As to the kind of experiment: Test Example 4: herbicidal effect by soil treatment (Table 19, symbol F). It counts as in vivo, southern crabgrass (Digitaria ciliaris). The following applies: AAH 320 g/ha. The essentials:
as §5

The test system of a further experiment is redroot pigweed. As to the kind of experiment: Test Example 4: herbicidal effect by soil treatment (Table 19, symbol N). It counts as in vivo, redroot pigweed (Amaranthus retroflexus). Conditions: AAH 320 g/ha. Put shortly:
as §5

For experiment [18], the system named is barnyard grass. As to the kind of experiment: Test Example 4: herbicidal effect by soil treatment (Table 19, symbol H). It counts as in vivo, barnyard grass (Echinochloa crus-galli). Conditions: AAH 320 g/ha. The essentials:
as §5

Experiment [19] deals with velvetleaf. As to the kind of experiment: Test Example 4: herbicidal effect by soil treatment (Table 19, symbol M). It counts as in vivo, velvetleaf (Abutilon theophrasti). The following applies: AAH 320 g/ha. The essentials: as §5
Experiment [20] has as its system Japanese bulrush. As to the kind of experiment: Test Example 1: herbicidal activity, application before weed generation under submerged conditions (Table 16, symbol B). It counts as in vivo, Japanese bulrush (Schoenoplectus juncoides). The following applies: 320 g/ha applied herbicide. The essentials: as §4
Experiment [21] relates to blackgrass. Briefly: Test Example 4: herbicidal effect by soil treatment (Table 19, symbol J). It counts as in vivo, blackgrass (Alopecurus myosuroides). The following applies: AAH 320 g/ha. Put shortly:
as §5

In experiment [22] the test system is late watergrass. As to the kind of experiment: Test Example 1: herbicidal activity, application before weed generation under submerged conditions (Table 16, symbol A). It counts as in vivo, late watergrass (Echinochloa oryzicola). The following applies: 320 g/ha applied herbicide. Put shortly: as §4
The subject of experiment [23] is southern crabgrass. As to the kind of experiment: Test Example 5: herbicidal effect by foliage application, plastic box (Table 20, symbol F). It counts as in vivo, southern crabgrass (Digitaria ciliaris). The following applies: foliage application, 320 g/ha, 3 weeks after application. The essentials:
as §3

Experiment [24] deals with persian speedwell. As to the kind of experiment: Test Example 4: herbicidal effect by soil treatment (Table 19, symbol R). The following applies: AAH 320 g/ha. It counts as in vivo, Persian speedwell (Veronica persica). The essentials: as §5
Experiment [25] has as its system green foxtail. As to the kind of experiment: Test Example 4: herbicidal effect by soil treatment (Table 19, symbol G). It counts as in vivo, green foxtail (Setaria viridis). The following applies: AAH 320 g/ha. The essentials: as §5

Molecules are shown by their SMILES.

On to `COC(=O)COc1ccc(-c2sc3ccccc3c2-c2c(O)c(C)nn(C)c2=O)cc1` [1-232], for which, in the experiment with barnyard grass [1], the “herbicidal effect on H (barnyard grass), rating 0-5” value was 3 (Herbicidal rate of 40% or more and less than 70%). Moreover, the “herbicidal effect rating, B: Japanese bulrush” value with Japanese bulrush [2] is reported as 0 (Herbicidal rate of 5% or less (almost no effect)). Moreover, the “herbicidal effect on D (Chinese sprangletop), rating 0-5” value in the experiment with Chinese sprangletop is 3 (Herbicidal rate of 40% or more and less than 70%). Moreover, the “herbicidal effect rating, C: oval-leafed pondweed” value in the experiment with oval-leafed pondweed [3] was 0 (Herbicidal rate of 5% or less (almost no effect)). Besides, the “herbicidal effect on E (rice flat sedge), rating 0-5” value in the experiment with rice flat sedge is 3 (Herbicidal rate of 40% or more and less than 70%). Besides, in the experiment with late watergrass [4], the “herbicidal effect rating, A: late watergrass” value was 3 (Herbicidal rate of 40% or more and less than 70%).
As to `C=CCOCc1ccc(-c2sc3ccccc3c2-c2c(O)c(C)nn(C)c2=O)cc1` [1-241], the “effect on blackgrass (J)” value in the experiment on blackgrass [5] is 3 (Herbicidal rate of 40% or more and less than 70%). In addition, the “herbicidal effect on H (barnyard grass), rating 0-5” value with barnyard grass [1] is listed as 5 (Herbicidal rate of 90% or more (almost completely withered)). In the experiment with green foxtail [6], the “effect on green foxtail (G)” value is listed as 5 (Herbicidal rate of 90% or more (almost completely withered)). Further, in the experiment on Japanese bulrush [2], the “herbicidal effect rating, B: Japanese bulrush” value was 3 (Herbicidal rate of 40% or more and less than 70%). Besides, in the experiment with oval-leafed pondweed [7], the “Herbicidal effect on C: oval-leafed pondweed (grade 0-5)” value was 2 (Herbicidal rate of 20% or more and less than 40%). For the same compound, in the experiment on lambsquarters [8], the “effect on lambsquarters (O)” value was 4 (Herbicidal rate of 70% or more and less than 90%). The “P: chickweed, herbicidal effect rating” value in the experiment on chickweed was 3 (Herbicidal rate of 40% or more and less than 70%). For the same compound, the “effect on persian speedwell (R)” value in the experiment on persian speedwell [9] is given as 5 (Herbicidal rate of 90% or more (almost completely withered)). Also, the “effect on velvetleaf (M)” value with velvetleaf [10] is 5 (Herbicidal rate of 90% or more (almost completely withered)). For the same compound, the “effect on Italian ryegrass (K)” value in the experiment with Italian ryegrass [11] is 5 (Herbicidal rate of 90% or more (almost completely withered)). The “herbicidal effect on D (Chinese sprangletop), rating 0-5” value in the experiment with Chinese sprangletop was 3 (Herbicidal rate of 40% or more and less than 70%). The “K: Italian ryegrass, herbicidal effect rating” value in the experiment on Italian ryegrass [12] was 3 (Herbicidal rate of 40% or more and less than 70%). Further, the “I: wild oat, herbicidal effect rating” value in the experiment on wild oat [13] is recorded as 0 (Herbicidal rate of 5% or less (almost no effect)). Besides, the “O: lambsquarters, herbicidal effect rating” value with lambsquarters [14] is 4 (Herbicidal rate of 70% or more and less than 90%). The “effect on wild oat (I)” value in the experiment with wild oat [15] is recorded as 0 (Herbicidal rate of 5% or less (almost no effect)). In addition, in the experiment with barnyard grass [16], the “effect on barnyard grass (H)” value is 4 (Herbicidal rate of 70% or more and less than 90%). In the experiment on southern crabgrass [17], the “F: southern crabgrass, herbicidal effect rating” value is 1 (Herbicidal rate of 5% or more and less than 20%). In addition, the “N: redroot pigweed, herbicidal effect rating” value in the experiment with redroot pigweed is 5 (Herbicidal rate of 90% or more (almost completely withered)). For the same compound, the “H: barnyard grass, herbicidal effect rating” value in the experiment on barnyard grass [18] was 3 (Herbicidal rate of 40% or more and less than 70%). Also, in the experiment on velvetleaf [19], the “M: velvetleaf, herbicidal effect rating” value is on record as 0 (Herbicidal rate of 5% or less (almost no effect)). Moreover, the “Herbicidal effect on B: Japanese bulrush (grade 0-5)” value with Japanese bulrush [20] is 3 (Herbicidal rate of 40% or more and less than 70%). The “J: blackgrass, herbicidal effect rating” value with blackgrass [21] was 2 (Herbicidal rate of 20% or more and less than 40%). Besides, the “herbicidal effect on E (rice flat sedge), rating 0-5” value in the experiment with rice flat sedge was 4 (Herbicidal rate of 70% or more and less than 90%). Moreover, the “Herbicidal effect on A: late watergrass (grade 0-5)” value with late watergrass [22] is given as 0 (Herbicidal rate of 5% or less (almost no effect)). The “effect on southern crabgrass (F)” value in the experiment on southern crabgrass [23] was 2 (Herbicidal rate of 20% or more and less than 40%). Moreover, the “herbicidal effect rating, A: late watergrass” value with late watergrass [4] was 3 (Herbicidal rate of 40% or more and less than 70%). For the same compound, the “R: persian speedwell, herbicidal effect rating” value in the experiment with persian speedwell [24] is 5 (Herbicidal rate of 90% or more (almost completely withered)). Moreover, the “G: green foxtail, herbicidal effect rating” value with green foxtail [25] was 3 (Herbicidal rate of 40% or more and less than 70%).
